US12173020B2, “New-type oxazolidinone compounds and preparation method therefor” (priority 2019, dated 2024)

Columns and labels:
[1] = system: methicillin-resistant Staphylococcus aureus (MRSA); assay: agar dilution method, inhibitory effect on MRSA; format: cell-based; conditions: for MIC50: Staphylococcus aureus, read-out: Minimum inhibitory concentration (MIC50, μg/ml) MRSA
From the text: (§1) In order to determine the antibacterial activity of these new oxazolidinone-based compounds, an agar dilution method was used to test the inhibitory effect on methicillin-resistant Staphylococcus aureus (MRSA) and vancomycin-resistant Enterococcus (VRE). The bacteria inhibition effect was expressed as minimum inhibitory concentration (MIC50, μg/ml) The test results are shown in the following table.

[2] = system: vancomycin-resistant Enterococcus (VRE); assay: agar dilution method, inhibitory effect on VRE; format: cell-based; conditions: for MIC50: Enterococcus, read-out: Minimum inhibitory concentration (MIC50, μg/ml) VRE
From the text: as §1

Row | MIC50 [1] | MIC50 [2] | Minimum inhibitory concentration (MIC50, μg/ml) MRSA [1] | Minimum inhibitory concentration (MIC50, μg/ml) VRE [2] | Compound
1 | 0.3 µg/mL | 0.2 µg/mL | – | – | CCCn1nnc(-c2ccc(-c3ccc(N4C[C@H](C(O)CF)OC4=O)cc3F)cn2)n1.O=P(O)(O)O (stereo partly drawn) [compound 141, (R)-3-(3-fluoro-4-(6-(2-propyl-2H-tetrazol-5-yl)pyridin-3-yl)phenyl)-5-(1-hydroxy-2-fluoroethyl) oxazolidin-2-one phosphate]
2 | – | – | 0.5 µg/mL | 0.5 µg/mL | CCn1nnc(-c2ccc(-c3ccc(N4C[C@@H](C(O)C(F)F)OC4=O)cc3F)cn2)n1.O=P(O)(O)O (stereo partly drawn) [compound 134, (S)-3-(3-fluoro-4-(6-(2-ethyl-2H-tetrazol-5-yl)pyridin-3-yl)phenyl)-5-(1-hydroxy-2-difluoroethyl) oxazolidin-2-one phosphate]
3 | – | – | 0.6 µg/mL | 0.5 µg/mL | O=C1O[C@@H](C(O)C(F)F)CN1c1ccc(-c2ccc(-c3nnn(C4CC4)n3)nc2)c(F)c1.O=P(O)(O)O (stereo partly drawn) [compound 145, (R)-3-(3-fluoro-4-(6-(2-cyclopropyl-2H-tetrazol-5-yl)pyridin-3-yl)phenyl)-5-(1-hydroxy-2-difluoroethyl) oxazolidin-2-one phosphate]
4 | 0.9 µg/mL | 0.5 µg/mL | – | – | C=Cn1nnc(-c2ccc(-c3ccc(N4C[C@H](C(O)C5CC5)OC4=O)cc3F)cn2)n1.O=P(O)(O)O (stereo partly drawn) [compound 155, (R)-3-(3-fluoro-4-(6-(2-vinyl-2H-tetrazol-5-yl)pyridin-3-yl)phenyl)-5-(1-hydroxy-1-cyclopropylmethyl) oxazolidin-2-one phosphate]
5 | 1.5 µg/mL | 1.1 µg/mL | – | – | CCn1nnc(-c2ccc(-c3ccc(N4C[C@H](C(O)C5CC5)OC4=O)cc3F)cn2)n1.O=P(O)(O)O (stereo partly drawn) [compound 137, (R)-3-(3-fluoro-4-(6-(2-ethyl-2H-tetrazol-5-yl)pyridin-3-yl)phenyl)-5-(1-hydroxy-1-cyclopropylmethyl) oxazolidin-2-one phosphate]
6 | 0.4 µg/mL | 0.3 µg/mL | – | – | C=Cn1nnc(-c2ccc(-c3ccc(N4C[C@@H](C(O)CF)OC4=O)cc3F)cn2)n1.O=P(O)(O)O (stereo partly drawn) [compound 154, (S)-3-(3-fluoro-4-(6-(2-vinyl-2H-tetrazol-5-yl)pyridin-3-yl)phenyl)-5-(1-hydroxy-2-fluoroethyl) oxazolidin-2-one phosphate]
7 | 1 µg/mL | 1 µg/mL | – | – | CCn1nnc(-c2ccc(-c3ccc(N4C[C@@H](C(O)C5CC5)OC4=O)cc3F)cn2)n1.O=P(O)(O)O (stereo partly drawn) [compound 138, (S)-3-(3-fluoro-4-(6-(2-ethyl-2H-tetrazol-5-yl)pyridin-3-yl)phenyl)-5-(1-hydroxy-1-cyclopropylmethyl) oxazolidin-2-one phosphate]
8 | 0.7 µg/mL | 0.7 µg/mL | – | – | C=Cn1nnc(-c2ccc(-c3ccc(N4C[C@@H](C(O)F)OC4=O)cc3F)cn2)n1.O=P(O)(O)O (stereo partly drawn) [compound 126, (S)-3-(3-fluoro-4-(6-(2-vinyl-2H-tetrazol-5-yl)pyridin-3-yl)phenyl)-5-(hydroxyfluoromethyl) oxazolidin-2-one phosphate]
9 | – | – | 0.6 µg/mL | 0.7 µg/mL | Cn1nnc(-c2ccc(-c3ccc(N4C[C@H](C(O)C(F)F)OC4=O)cc3F)cn2)n1.O=P(O)(O)O (stereo partly drawn) [compound 127, (R)-3-(3-fluoro-4-(6-(2-methyl-2H-tetrazol-5-yl)pyridin-3-yl)phenyl)-5-(1-hydroxy-2-difluoroethyl) oxazolidin-2-one phosphate]
10 | – | – | 0.3 µg/mL | 0.2 µg/mL | CCn1nnc(-c2ccc(-c3ccc(N4C[C@H](C(O)C(F)F)OC4=O)cc3F)cn2)n1.O=P(O)(O)O (stereo partly drawn) [compound 133, (R)-3-(3-fluoro-4-(6-(2-ethyl-2H-tetrazol-5-yl)pyridin-3-yl)phenyl)-5-(1-hydroxy-2-difluoroethyl) oxazolidin-2-one phosphate]
11 | – | – | 0.3 µg/mL | 0.2 µg/mL | C=Cn1nnc(-c2ccc(-c3ccc(N4C[C@@H](C(O)C(F)F)OC4=O)cc3F)cn2)n1.O=P(O)(O)O (stereo partly drawn) [compound 152, (S)-3-(3-fluoro-4-(6-(2-vinyl-2H-tetrazol-5-yl)pyridin-3-yl)phenyl)-5-(1-hydroxy-2-difluoroethyl) oxazolidin-2-one phosphate]
12 | 0.2 µg/mL | 0.1 µg/mL | – | – | C=Cn1nnc(-c2ccc(-c3ccc(N4C[C@H](C(O)CF)OC4=O)cc3F)cn2)n1.O=P(O)(O)O (stereo partly drawn) [compound 153, (R)-3-(3-fluoro-4-(6-(2-vinyl-2H-tetrazol-5-yl)pyridin-3-yl)phenyl)-5-(1-hydroxy-2-fluoroethyl) oxazolidin-2-one phosphate]
13 | 0.2 µg/mL | 0.2 µg/mL | – | – | CCCn1nnc(-c2ccc(-c3ccc(N4C[C@@H](C(O)CF)OC4=O)cc3F)cn2)n1.O=P(O)(O)O (stereo partly drawn) [compound 142, (S)-3-(3-fluoro-4-(6-(2-propyl-2H-tetrazol-5-yl)pyridin-3-yl)phenyl)-5-(1-hydroxy-2-fluoroethyl) oxazolidin-2-one phosphate]

Continued, molecule first:

Row | Compound | MIC50 [1] | MIC50 [2] | Minimum inhibitory concentration (MIC50, μg/ml) MRSA [1] | Minimum inhibitory concentration (MIC50, μg/ml) VRE [2]
14 | C=Cn1nnc(-c2ccc(-c3ccc(N4C[C@@H](CO)OC4=O)cc3F)cn2)n1.O=P(O)(O)O [compound 86, (S)-3-(3-fluoro-4-(6-(2-vinyl-2H-tetrazol-5-yl)pyridin-3-yl)phenyl)-5-(hydroxymethyl) oxazolidin-2-one phosphate] | 0.3 µg/mL | 0.3 µg/mL | – | –
15 | CC(O)[C@H]1CN(c2ccc(-c3ccc(-c4nnn(C5CC5)n4)nc3)c(F)c2)C(=O)O1.O=P(O)(O)O (stereo partly drawn) [compound 113, (R)-3-(3-fluoro-4-(6-(2-cyclopropyl-2H-tetrazol-5-yl)pyridin-3-yl)phenyl)-5-(1-hydroxyethyl) oxazolidin-2-one phosphate] | 0.2 µg/mL | 0.2 µg/mL | – | –
16 | CCCn1nnc(-c2ccc(-c3ccc(N4C[C@H](C(O)F)OC4=O)cc3F)cn2)n1.O=P(O)(O)O (stereo partly drawn) [compound 109, (R)-3-(3-fluoro-4-(6-(2-propyl-2H-tetrazol-5-yl)pyridin-3-yl)phenyl)-5-(hydroxyfluoromethyl) oxazolidin-2-one phosphate] | 0.2 µg/mL | 0.2 µg/mL | – | –
17 | CC(O)[C@@H]1CN(c2ccc(-c3ccc(-c4nnn(C5CC5)n4)nc3)c(F)c2)C(=O)O1.O=P(O)(O)O (stereo partly drawn) [compound 114, (S)-3-(3-fluoro-4-(6-(2-cyclopropyl-2H-tetrazol-5-yl)pyridin-3-yl)phenyl)-5-(1-hydroxyethyl) oxazolidin-2-one phosphate] | 0.3 µg/mL | 0.3 µg/mL | – | –
18 | CCC(OP(=O)(O)O)[C@H]1CN(c2ccc(-c3ccc(-c4nnn(C5CC5)n4)nc3)c(F)c2)C(=O)O1 (stereo partly drawn) [compound 115, (R)-3-(3-fluoro-4-(6-(2-cyclopropyl-2H-tetrazol-5-yl)pyridin-3-yl)phenyl)-5-(1-hydroxypropyl)) oxazolidin-2-one phosphate] | – | – | 0.5 µg/mL | 0.5 µg/mL
19 | O=C1O[C@H](C(OP(=O)(O)O)C(F)(F)F)CN1c1ccc(-c2ccc(-c3nnn(C4CC4)n3)nc2)c(F)c1 (stereo partly drawn) [compound 112, (S)-3-(3-fluoro-4-(6-(2-cyclopropyl-2H-tetrazol-5-yl)pyridin-3-yl)phenyl)-5-(1-hydroxy-2-trifluoroethyl) oxazolidin-2-one phosphate] | – | – | 0.9 µg/mL | 0.9 µg/mL
20 | Cn1nnc(-c2ccc(-c3ccc(N4C[C@@H](C(O)C(F)(F)F)OC4=O)cc3F)cn2)n1.O=P(O)(O)O (stereo partly drawn) [compound 94, (S)-3-(3-fluoro-4-(6-(2-methyl-2H-tetrazol-5-yl)pyridin-3-yl)phenyl)-5-(1-hydroxy-2-trifluoroethyl) oxazolidin-2-one phosphate] | – | – | 1.5 µg/mL | 1.5 µg/mL
21 | CCCn1nnc(-c2ccc(-c3ccc(N4C[C@@H](C(C)O)OC4=O)cc3F)cn2)n1.O=P(O)(O)O (stereo partly drawn) [compound 106, (S)-3-(3-fluoro-4-(6-(2-propyl-2H-tetrazol-5-yl)pyridin-3-yl)phenyl)-5-(1-hydroxyethyl) oxazolidin-2-one phosphate] | 1 µg/mL | 1.2 µg/mL | – | –
22 | CCn1nnc(-c2ccc(-c3ccc(N4C[C@@H](C(C)O)OC4=O)cc3F)cn2)n1.O=P(O)(O)O (stereo partly drawn) [compound 98, (S)-3-(3-fluoro-4-(6-(2-ethyl-2H-tetrazol-5-yl)pyridin-3-yl)phenyl)-5-(1-hydroxyethyl) oxazolidin-2-one phosphate] | 1.6 µg/mL | 1.5 µg/mL | – | –
23 | CCCn1nnc(-c2ccc(-c3ccc(N4C[C@@H](C(O)C(F)(F)F)OC4=O)cc3F)cn2)n1.O=P(O)(O)O (stereo partly drawn) [compound 104, (S)-3-(3-fluoro-4-(6-(2-propyl-2H-tetrazol-5-yl)pyridin-3-yl)phenyl)-5-(1-hydroxy-2-trifluoroethyl) oxazolidin-2-one phosphate] | – | – | 0.5 µg/mL | 0.5 µg/mL
24 | C=Cn1nnc(-c2ccc(-c3ccc(N4C[C@@H](C(C)O)OC4=O)cc3F)cn2)n1.O=P(O)(O)O (stereo partly drawn) [compound 122, (S)-3-(3-fluoro-4-(6-(2-vinyl-2H-tetrazol-5-yl)pyridin-3-yl)phenyl)-5-(1-hydroxyethyl) oxazolidin-2-one phosphate] | 1 µg/mL | 0.9 µg/mL | – | –
25 | CCn1nnc(-c2ccc(-c3ccc(N4C[C@@H](C(OP(=O)(O)O)C(F)(F)F)OC4=O)cc3F)cn2)n1 (stereo partly drawn) [compound 96, (S)-3-(3-fluoro-4-(6-(2-ethyl-2H-tetrazol-5-yl)pyridin-3-yl)phenyl)-5-(1-hydroxy-2-trifluoroethyl) oxazolidin-2-one phosphate] | – | – | 0.8 µg/mL | 0.8 µg/mL
